Measured values reported in ChEMBL document CHEMBL1201862, “PubChem BioAssay data set” (2004).
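Five compound concentrations were applied to cells in 96-well plates for 48 hours; endpoints were derived by simple linear interpolation of the resulting dose-response curve. At the GI50, growth is halved.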 Active and inactive are the calls of the source. Rule as the data show it: active = GI50 up to about 1.1 µM and inactive = higher.

Tests used:
Test in all cases: NCI-60 cell line screen, 48 h
COLO 205 = tested on: COLO 205
HCC 2998 = tested on: HCC 2998
HOP-92 = tested on: HOP-92
HT-29 = tested on: HT-29
MDA-MB-231 = tested on: MDA-MB-231
MDA-MB-435 = tested on: MDA-MB-435
NCI-H226 = tested on: NCI-H226
OVCAR-3 = tested on: OVCAR-3
OVCAR-5 = tested on: OVCAR-5
OVCAR-8 = tested on: OVCAR-8
PC-3 = tested on: PC-3
SF-295 = tested on: SF-295
SK-MEL-5 = tested on: SK-MEL-5
SN12C = tested on: SN12C
SNB-19 = tested on: SNB-19
SNB-75 = tested on: SNB-75
T47D = tested on: T47D
TK-10 = tested on: TK-10
HL-60 = tested on: HL-60

Measured: GI50

C[C@]12CC[C@H]3[C@@H](CCC4=CC(=O)CC[C@@]43C)[C@@H]1CC[C@@H]2OC(=O)c1cccc2c(=O)c3ccccc3[nH]c12
inactive: COLO 205 > 100 µM | HCC 2998 25.2 µM | HOP-92 84.5 µM | HT-29 43.8 µM | MDA-MB-231 > 100 µM | MDA-MB-435 43.2 µM | NCI-H226 75.3 µM | OVCAR-3 > 100 µM | OVCAR-5 > 100 µM | OVCAR-8 > 100 µM | PC-3 44.4 µM | SF-295 > 100 µM | SK-MEL-5 37.4 µM | SN12C > 100 µM | SNB-19 > 100 µM | SNB-75 13.9 µM | T47D 57.3 µM | TK-10 > 100 µM

O=C(OCc1ccccc1[N+](=O)[O-])N1c2ccccc2[C@@]23O[C@]24CCC[C@H]3C#C/C=C\C#C[C@H]14
inactive: COLO 205 67.3 µM | HCC 2998 41.3 µM | HL-60 2.5 µM | HOP-92 25.6 µM | HT-29 38.1 µM | MDA-MB-231 > 100 µM | MDA-MB-435 > 100 µM | NCI-H226 > 100 µM | OVCAR-3 > 100 µM | OVCAR-5 66.7 µM | OVCAR-8 49 µM | PC-3 14.8 µM | SF-295 7.01 µM | SK-MEL-5 12.4 µM | SN12C 13.7 µM | SNB-19 > 100 µM | T47D 73.8 µM | TK-10 > 100 µM

COc1ccc2[nH]c3c([N+](=O)[O-])ccc(Cl)c3c(=O)c2c1
inactive: COLO 205 17 µM | HCC 2998 28.9 µM | HL-60 3.02 µM | HOP-92 14 µM | HT-29 16.3 µM | MDA-MB-231 18 µM | MDA-MB-435 21 µM | NCI-H226 34.4 µM | OVCAR-3 16.8 µM | OVCAR-5 > 43 µM | OVCAR-8 22 µM | PC-3 22.5 µM | SF-295 38 µM | SK-MEL-5 23.9 µM | SN12C 22.9 µM | SNB-19 51.4 µM | T47D 29.2 µM | TK-10 20.2 µM

COc1cc(/C=C2\N=C(c3ccccc3)N(/N=C/c3cc4cc(C)ccc4nc3Cl)C2=O)ccc1O
inactive: COLO 205 37.2 µM | HCC 2998 35.5 µM | HL-60 24.9 µM | HOP-92 31.6 µM | HT-29 33.8 µM | MDA-MB-231 27.8 µM | MDA-MB-435 17.3 µM | OVCAR-3 38.9 µM | OVCAR-5 > 100 µM | OVCAR-8 49.7 µM | PC-3 20 µM | SF-295 48.1 µM | SK-MEL-5 37.2 µM | SN12C 30 µM | SNB-19 67.8 µM | SNB-75 32.7 µM | T47D 56.1 µM | TK-10 43.2 µM

COc1ccc(OC)c2c(C)ccnc12
inactive: COLO 205 39.5 µM | HCC 2998 > 95.5 µM | HOP-92 18.6 µM | HT-29 17.1 µM | MDA-MB-231 34 µM | MDA-MB-435 25.7 µM | NCI-H226 25.5 µM | OVCAR-3 2.99 µM | OVCAR-5 46.1 µM | OVCAR-8 14.9 µM | PC-3 20.3 µM | SF-295 16.5 µM | SK-MEL-5 22.2 µM | SN12C 22.1 µM | SNB-19 19.9 µM | SNB-75 33.1 µM | T47D 22.5 µM | TK-10 81.7 µM

CCN(CC)CCC(=O)c1ccc(Oc2ccc(F)cc2)cc1
inactive: COLO 205 19.2 µM | HCC 2998 20 µM | HOP-92 18.3 µM | HT-29 19.8 µM | MDA-MB-231 17.1 µM | MDA-MB-435 17.5 µM | NCI-H226 > 100 µM | OVCAR-3 17.1 µM | OVCAR-5 17.9 µM | OVCAR-8 22.9 µM | PC-3 24 µM | SF-295 39.4 µM | SN12C 18.2 µM | SNB-19 18 µM | SNB-75 26.7 µM | T47D 20 µM | TK-10 17.5 µM

CC(=O)OCC1OC(Sc2nc(-c3ccccc3)c(C#N)c(=O)n2C2OC(COC(C)=O)C(OC(C)=O)C(OC(C)=O)C2OC(C)=O)C(OC(C)=O)C(OC(C)=O)C1OC(C)=O (stereo unspecified)
inactive: COLO 205 > 100 µM | HCC 2998 8.11 µM | HOP-92 > 100 µM | HT-29 > 100 µM | MDA-MB-231 > 100 µM | MDA-MB-435 > 100 µM | NCI-H226 > 100 µM | OVCAR-3 > 100 µM | OVCAR-5 > 100 µM | OVCAR-8 > 100 µM | PC-3 > 100 µM | SF-295 > 100 µM | SK-MEL-5 > 100 µM | SN12C > 100 µM | SNB-75 > 100 µM | T47D > 100 µM | TK-10 > 100 µM

COC(=O)C(N)CCCC(N)C(=O)NC(C)C(=O)NC(CCC(=O)NCCNCCNc1c2ccccc2nc2cccc([N+](=O)[O-])c12)C(N)=O (stereo unspecified)
inactive: COLO 205 6.28 µM | HCC 2998 8.34 µM | HOP-92 4.83 µM | HT-29 13.7 µM | MDA-MB-231 16.9 µM | MDA-MB-435 6.93 µM | NCI-H226 10.9 µM | OVCAR-3 12.3 µM | OVCAR-5 35.2 µM | OVCAR-8 8.79 µM | PC-3 4.79 µM | SF-295 27.8 µM | SK-MEL-5 6.92 µM | SN12C 12.8 µM | SNB-19 18.5 µM | SNB-75 10.4 µM | T47D 5.06 µM | TK-10 16.2 µM

COc1ccccc1NC(=S)N/N=C1\C(=O)Nc2ccccc21
inactive: COLO 205 > 100 µM | HCC 2998 > 100 µM | HOP-92 > 100 µM | HT-29 > 100 µM | MDA-MB-231 > 100 µM | MDA-MB-435 > 100 µM | NCI-H226 > 100 µM | OVCAR-3 57.7 µM | OVCAR-5 > 100 µM | OVCAR-8 > 100 µM | PC-3 > 100 µM | SF-295 > 100 µM | SK-MEL-5 73.5 µM | SN12C > 100 µM | SNB-19 > 100 µM | SNB-75 58.9 µM | T47D > 100 µM | TK-10 > 100 µM

C=C1c2[nH]c3ccccc3c2C2C(CC)C1CCN2C (stereo unspecified)
inactive: COLO 205 16.7 µM | HCC 2998 18.5 µM | HL-60 49.1 µM | HOP-92 25.6 µM | HT-29 27.8 µM | MDA-MB-231 48.4 µM | MDA-MB-435 65.9 µM | NCI-H226 6.62 µM | OVCAR-3 > 100 µM | OVCAR-5 > 100 µM | OVCAR-8 53.1 µM | PC-3 32.8 µM | SF-295 55.8 µM | SK-MEL-5 61.1 µM | SN12C 98.4 µM | SNB-19 > 100 µM | T47D > 100 µM | TK-10 33.3 µM

OCCN(CCO)c1ccc2c(c1)Cc1ccccc1-2
inactive: COLO 205 18.4 µM | HCC 2998 64.3 µM | HL-60 41.7 µM | HOP-92 21.9 µM | HT-29 18.8 µM | MDA-MB-231 34 µM | MDA-MB-435 51.6 µM | NCI-H226 44.4 µM | OVCAR-3 17 µM | OVCAR-5 48.3 µM | OVCAR-8 52.5 µM | PC-3 42.6 µM | SF-295 88.3 µM | SK-MEL-5 35.7 µM | SN12C 52.1 µM | SNB-19 > 100 µM | T47D 13.5 µM | TK-10 22.1 µM
